# Tests used:
# [1] = test system: S. aureus ATCC 29213, 1199b, 1199, K1712, 8325.4; assay: Supplemental EPI tests: potentiation of antibiotic MICs; format: cell-based, Staphylococcus aureus
# Procedure: (§1) The molecules of which the EPI effect was evaluated are: I.1 (24 μmol/l), I.6 (16 μmol/l) and I.14 (31 μmol/l).
# (§2) The antibiotics with which these molecules were combined are: ciprofloxacin and norfloxacin; tetracycline; oxacillin; erythromycin and vancomycin.
# (§3) The bacterial strains tested are S. aureusATCC 29213; S. aureus 1199b overexpressing NorA and also S. aureus 1199, the strain from which it is derived; S. aureus K1712 not expressing NorA and also S. aureus 8325.4 (the strain from which it is derived).
# (§4) The methodology used is based on the MIC technique described previously.
# [2] = test system: S. aureus K1712 not expressing NorA; assay: as above; format: cell-based, Staphylococcus aureus; settings: strain not expressing NorA
# Procedure: as §1, §2, §3, §4
# [3] = test system: S. aureus 1199b overexpressing NorA; assay: as above; format: cell-based, Staphylococcus aureus; settings: for potentiating activity in the presence of tetracycline and of erythromycin: 1199b strain
# Procedure: as §1, §2, §3, §4
# [4] = test system: Staphylococcus epidermidis; assay: Spectrum of activity: I.12 + ciprofloxacin, S. epidermidis; format: cell-based
# Procedure: (§5) The antibiotic used is ciprofloxacin with the same dilution as in section B.1. The compound I.12 is also used under the same conditions as in section B.1.
# (§6) Fifty-six strains belonging to 19 genera were used (TABLE 6).
# (§7) Nine of these strains are ATCC strains and 47 are of clinical origins and come from the Centre de Biologie Est [Eastern Biological Center] in Bron. Eighteen staphylococcal strains are tested: 1 strain of S. epidermidis, 2 strains of S. aureus, 10 MRSA (methicillin-resistant S. aureus) and 5 VISA (vancomycin intermediate sensitivity S. aureus). Sixteen enterococcal strains are also tested, i.e. 9 E. faecium and 7 E. faecalis. The latter 2 species grouped together 2 vancomycin-sensitive strains (1 per species), and 14 resistant strains (VRE, respectively 8 E. faecium and 6 E. faecalis).
# (§8) This potentiating effect is evaluated as previously. However, the growth of certain microorganisms (Streptococcus pneumoniae, S. agalactiae, S. pyogenes, Corynebacterium amycolatum and Listeria monocytogenes) in liquid medium requires defibrinated horse blood lysed in 50% of sterile osmosed water via a succession of 7 freezings (−20° C.)/thawing (ambient temperature). The 50% blood is then centrifuged at ambient temperature at 12 000 rpm for 20 min. The supernatant is introduced into sterile, additive-free MH II in an amount of 5% by volume.
# [5] = test system: Enterococcus faecium (VSE, VRE strains); assay: Spectrum of activity: I.12 + ciprofloxacin, E. faecium strains; format: cell-based; settings: for Number of sensitive strains / Percentage of sensitive strains: ciprofloxacin + I.12
# Procedure: as §5, §6, §7, §8
# [6] = test system: S. aureus ATCC 29213; assay: Time kill curve method, I.12/ciprofloxacin combination; format: cell-based, Staphylococcus aureus; settings: ciprofloxacin (0.5 mg/ml and 0.125 mg/m)/I.12 (31 μM); mean of two experiments
# Procedure: The time kill curve is performed in 6-well plates. Each well contains 5 ml of MH II broth inoculated with bacteria in the exponential growth phase (final concentrations at 10^6 CFU/ml). The various bacterial growth conditions tested are: • Well 1: 0.5 mg/ml of ciprofloxacin +31 μM of I.12. • Well 2: 0.125 mg/ml of ciprofloxacin +31 μM of I.12. • Well 3: 0.5 mg/ml of ciprofloxacin. • Well 4: 0.125 mg/ml of ciprofloxacin. • Well 5: 31 μM of I.12. • Well 6: No molecule.
# The cultures are incubated at 37° C. with shaking at 400 rpm. Samples are taken every hour for the first 6 hours, and at 22 hours. The live bacteria are counted by culturing on a dish after dilutions of the cultures.
# [7] = test system: Staphylococcus aureus (MSSA, MRSA, VISA strains); assay: Spectrum of activity: I.12 + ciprofloxacin, S. aureus strains; format: cell-based; settings: for Number of sensitive strains / Percentage of sensitive strains: ciprofloxacin + I.12
# Procedure: as §5, §6, §7, §8
# [8] = test system: Fifty-six strains belonging to 19 genera; assay: Spectrum of activity: potentiating effect of compound I.12 on ciprofloxacin (MIC method); format: cell-based
# Procedure: as §5, §6, §7, §8
# [9] = test system: VISA (strain V4); assay: Chessboard method, I.12 combined with ciprofloxacin (FIC); format: cell-based, Staphylococcus aureus; settings: I.12 and ciprofloxacin; FIC≦0.5 = synergy
# [10] = test system: Enterococcus faecalis (VSE, VRE strains); assay: Spectrum of activity: I.12 + ciprofloxacin, E. faecalis strains; format: cell-based; settings: for Number of sensitive strains / Percentage of sensitive strains: ciprofloxacin + I.12
# Procedure: as §5, §6, §7, §8
# [11] = test system: S. aureus K 1712 (strain without NorA pump); assay: Chessboard method, I.12 combined with antibiotics; format: cell-based, Staphylococcus aureus; settings: each ATB
# [12] = test system: S. aureus 1199B (strain overexpressing NorA); assay: Chessboard method, I.12 combined with antibiotics; format: cell-based, Staphylococcus aureus
# [13] = test system: S. aureus ATCC 29213; assay: Chessboard method, I.12 combined with antibiotics (FIC); format: cell-based, Staphylococcus aureus; settings: I.12 and ciprofloxacin; FIC≦0.5 = synergy
# Procedure: The antibiotics used are erythromycin, ciprofloxacin, vancomycin, tetracycline and oxacillin.
# The sensitivity of S. aureus ATCC 29213 to the combination of the antibiotic molecules ciprofloxacin and the compound I.12 and the effect of each of the two molecules on the activity of the other are determined using the chessboard method. This method is carried out in a round-bottomed 96-well plate (12 columns by 8 rows). Various concentrations of ciprofloxacin and of compound I.12 are obtained by a dilution of their stock solutions in MH II broth. Fifty microliters of the dilution range of the compound I.12 are deposited in each well of columns 1 to 10, each row corresponding to a dilution of this compound. Fifty microliters of the dilution range of ciprofloxacin are deposited in the wells of columns 2 to 10, each column corresponding to a dilution. This same dilution range of ciprofloxacin is also prepared in column 11. Fifty microliters of MH II broth are deposited in the wells of columns 1 and 11. Finally, 100 μl of bacterial suspension at 10^6 CFU (Colony-Forming Units)/ml are introduced in each well of columns 1 to 10 (final concentration of bacteria: 5×10^5 CFU/ml).
# The plate is read visually. […] The fractional inhibitory concentration (FIC) is calculated by adding the FIC of the compound I.12 (FICI.12) and the FIC of ciprofloxacin (FICcipro) according to the following formulae: […]
# [14] = test system: MRSA (strain ST07 1012); assay: Chessboard method, I.12 combined with ciprofloxacin (FIC); format: cell-based, Staphylococcus aureus; settings: I.12 and ciprofloxacin; FIC≦0.5 = synergy
# [15] = test system: S. aureus ATCC 29213; assay: Antibiotic activity of the compounds alone (MIC technique); format: cell-based, Staphylococcus aureus; settings: compound alone, 18-24 h at 37° C., MH II medium
# Procedure: All the compounds according to the invention are solubilized in dimethylsufoxide (DMSO). For each compound, the highest concentration usable during the experiments is determined by taking into account the toxicity of the solvent (final concentration of DMSO in contact with the bacteria of less than 3%) and also the capacity of the compound to solubilize in Mueller Hinton II (MH II) media. This is because some compounds precipitate during dilutions of solutions based on DMSO in MH II media. The strain for screening the compounds is a strain of Staphylococcus aureus from the American Type Culture Collection or ATCC, called S. aureus ATCC 29213. The antibiotic activity of a molecule is evaluated using the MIC technique. The MIC of a molecule is determined in a 96-well microplate, in MH II liquid medium according to the protocol of the CASFM and of the CLSI. A dilution range of the molecule is prepared beforehand in MH II medium. In each well, 100 μl of a bacterial suspension of SI aureus ATCC 29213 (10^6 CFU/ml), 50 μl of the dilution range of the compound tested and 50 μl of MH II are mixed. After 18-24 h of incubation at 37° C., the molecules having shown an inhibition of bacterial growth are recorded as having an antibiotic activity. The lowest concentration of compound for which no bacterial growth is observed is the MIC (lowest concentration inhibiting the growth of the bacteria).
smiles,measurement,setting,value
"COc1cc(OC)c2c(C)c(-c3cccc(Cl)c3)c(=O)[nH]c2c1 [compound I.1, 3-(3-chlorophenyl)-5,7-dimethoxy-4-methylquinolin-2(1H)-one]",EPI effects of the compound in combination with antibiotics,[1]; I.1 at 24 μmol/l,minor
"COc1cc(OC)c2c(C)c(-c3c[nH]c4ccccc34)c(=O)[nH]c2c1 [compound I.6, 3-(1H-indol-3-yl)-5,7-dimethoxy-4-methylquinolin-2(1H)-one]",potentiating activity of the combinations,[2],zero
same,potentiating activity in the presence of tetracycline and of erythromycin,[3],does not exist
same,potentiating activity combined with one of the two fluoroquinolones,"[3]; norfloxacin or ciprofloxacin, strain overexpressing NorA",particularly notable
same,potentiating activity coupled to non-fluoroquinolone antibiotics,"[1]; tetracycline, oxacillin, erythromycin, vancomycin",not very effective
"COc1cc(O)c2c(C)c(-c3ccccc3)c(=O)[nH]c2c1 [compound I.12, 5-hydroxy-7-methoxy-4-methyl-3-phenylquinolin-2(1H)-one]","sensitive strains / strains tested, combination with ciprofloxacin",[4]; S. epidermidis,1/1
same,Number of sensitive strains,"[4]; S. epidermidis sensitive strain, 1 tested, ciprofloxacin + I.12",1
same,Percentage of sensitive strains,"[4]; S. epidermidis sensitive strain, ciprofloxacin + I.12",100%
same,"sensitive strains / strains tested, combination with ciprofloxacin",[5]; E. faecium (the 5 being VREs),5/9
same,Number of sensitive strains,"[5]; E. faecium VRE, 8 tested",5
same,Percentage of sensitive strains,[5]; E. faecium VRE,62.5%
same,Number of sensitive strains,"[5]; E. faecium VSE, 1 tested",0
same,Percentage of sensitive strains,[5]; E. faecium VSE,0
same,factor by which the ciprofloxacin MIC is divided in the presence of the compound,"[5]; two E. faecium VRE strains not listed in the 28, weakly sensitive",≥ 2
same,reduction of CFU/ml of the combination versus the most active molecule alone (synergistic effect),[6],≥ 2 log10
same,Number of sensitive strains,"[7]; MRSA, 10 strains tested",10
same,Percentage of sensitive strains,[7]; MRSA,100%
same,Number of sensitive strains,"[7]; MSSA, 2 strains tested",2
same,Percentage of sensitive strains,[7]; MSSA,100%
same,"sensitive strains / strains tested, combination with ciprofloxacin",[7]; S. aureus sensitive to conventional antibiotics,2/2
same,"sensitive strains / strains tested, combination with ciprofloxacin",[7]; S. aureus with reduced sensitivity to vancomycin (VISA),5/5
same,Number of sensitive strains,"[7]; VISA, 5 strains tested",5
same,Percentage of sensitive strains,[7]; VISA,100%
same,"sensitive strains / strains tested, combination with ciprofloxacin",[7]; methicillin-resistant S. aureus (MRSA),10/10
same,number of strains more sensitive to ciprofloxacin when the compound is combined,[8]; among the 56 bacterial strains tested,28
same,factor by which the ciprofloxacin MICs are divided in the presence of the compound,"[8]; each of the 28 sensitive strains, except one",16
same,factor by which the ciprofloxacin MIC is divided in the presence of the compound,[8]; the one exception among the 28 sensitive strains,≥ 4
same,FIC (fractional inhibitory concentration),[9],≤ 0.5
same,"sensitive strains / strains tested, combination with ciprofloxacin",[10]; E. faecalis (4 are VREs),5/7
same,Number of sensitive strains,"[10]; E. faecalis VRE, 6 tested",4
same,Percentage of sensitive strains,[10]; E. faecalis VRE,67%
same,Number of sensitive strains,"[10]; E. faecalis VSE, 1 tested",1
same,Percentage of sensitive strains,[10]; E. faecalis VSE,100%
same,interaction with antibiotics (chessboard),[11],absence of interaction
same,interaction with antibiotics (chessboard),[12],highly synergistic combination
same,FIC (fractional inhibitory concentration),[13],≤ 0.5
same,FIC (fractional inhibitory concentration),[14],≤ 0.5
"Cc1c(-c2ccccc2)c(=O)[nH]c2cc(O)cc(O)c12 [compound I.13, 5,7-dihydroxy-4-methyl-3-phenylquinolin-2(1H)-one]","antibiotic activity alone, concentration (MIC)",[15],155 µM
"COc1cc(O)c2c(C)c(Cc3ccccc3)c(=O)[nH]c2c1 [compound I.14, 3-benzyl-5-hydroxy-7-methoxy-4-methylquinolin-2(1H)-one]",melting point,,> 278 °C (dec.)
same,potentiating activity in the presence of tetracycline and of erythromycin,[3],weak activity
same,improvement in the MICs (fold) in the presence of norfloxacin and of ciprofloxacin,"[1]; I.1 24 μmol/l, I.6 16 μmol/l, I.14 31 μmol/l",results are identical
"COc1cc(O)c2c3c(c(=O)[nH]c2c1)CCC3 [compound I.15, 2,3-dihydro-9-hydroxy-7-methoxy-1H-cyclopenta[c]quinolin-4(5H)-one]",melting point,,189 to 190 °C

# From patent US20140038883A1, “NOVEL AZACOUMARIN DERIVATIVES HAVING MDR PUMP INHIBITING ACTIVITY” (UNIVERSITE CLAUDE BERNARD LYON 1, priority 2011, published 2014)
